This passage reports Km results from publication PMC4109671, “Cloning, Expression, Purification, and Characterization of Glutaredoxin from Antarctic Sea-Ice Bacterium Pseudoalteromonas sp. AN178” (BioMed Research International, 2014).

This experiment concerns T1, rPsGrx.
T1 construct: gene PsGrx; active site C12-P-F-C15 (abstract prints CPYC)
In words: GSH-dependent HED reduction coupled to yeast glutathione reductase, NADPH consumption at […] nm; Lineweaver-Burk. It counts as biochemical, Pseudoalteromonas sp. AN178. The settings on record: HED 0.4 to 8 mM, 1 mM GSH fixed, yeast GR, apparent Km, standard assay at 25°C.

By Km is commonly meant the substrate concentration at which the rate is half of its maximum.

As for `OCCSSCCO` [HED], the Km was found to be 460 µM.
